Assay results: patent US12157730B2, “Heteroaryl derivative, method for producing same, and pharmaceutical composition comprising same as effective component” (VORONOI INC., priority 2019, dated 2024)

Biological target: T1, Ba/F3 cell EGFR Exon20 ins NPH (Homo sapiens, UniProt P00533, INS773NPH)
T1 construct: expressed in transfected cells; host or cells: Ba/F3
Assay: Ba/F3 cell proliferation suppression, EGFR Exon20 ins NPH
Format: cell-based
Settings: GI50 class; Ba/F3 cell line with NPH inserted at Exon20 of EGFR; 72 hours
How it was run: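 Cells (3000–5000/well) plated 24 h before compound, 12-point 3-fold dilutions at 0.3 nM to 50 um final; Ba/F3 lines grown with 5 ng/ml IL-3. Viability by CellTiter-Glo luminescence after 72 h, growth ratio vs control, GI50 from curves; triplicate.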

Row | SMILES | Ba/F3 (NPH) Activity
1 | C=CC(=O)Nc1cc(Nc2cc(N3OCC[C@@H]3c3ccc(F)c(Cl)c3)ncn2)c(OC)cc1N1CCC(N2CCO[C@H](C)C2)CC1 [compound 874, N-(5-((6-((R)-3-(3-chloro-4-fluorophenyl)isoxazolidine-2-yl)pyrimidine-4-yl)amino)-4-methoxy-2-(4-((R)-2-methylmorpholino)piperidine-1-yl)phenyl) acrylamide] | A (GI50 < 50 nM)
2 | C=CC(=O)Nc1cc(Nc2cc(N3OCC[C@@H]3c3cccc(Cl)c3F)ncn2)c(OC)cc1N1CCC(N2C[C@@H](C)N(C3CC3)C[C@H]2C)CC1 [Example 122, N-(5-((6-((R)-3-(3-chloro-2-fluorophenyl)isoxazolidine-2-yl)pyrimidine-4-yl)amino)-2-(4-((2R,5R)-4-cyclopropyl-2,5-dimethylpiperazine-1-yl)piperidine-1-yl)-4-methoxyphenyl) acrylamide] | A (GI50 < 50 nM)
3 | C=CC(=O)Nc1cc(Nc2cc(N3OCC[C@@H]3c3cccc(Cl)c3C)ncn2)c(OC)cc1N1CCC(N2CCO[C@H](C)C2)CC1 [compound 530, N-(5-((6-((R)-3-(3-chloro-2-methylphenyl)isoxazolidine-2-yl)pyrimidine-4-yl)amino)-4-methoxy-2-(4-((R)-2-methylmorpholino)piperidine-1-yl)phenyl) acrylamide] | A (GI50 < 50 nM)
4 | C=CC(=O)Nc1cc(Nc2cc(N3OCC[C@@H]3Cc3cccc(F)c3Cl)ncn2)c(OC)cc1N1CCC(N2CCN(C3CC3)CC2)CC1 [compound 1007, N-(5-((6-((S)-3-(2-chloro-3-fluorobenzyl)isoxazolidine-2-yl)pyrimidine-4-yl)amino)-2-(4-(4-cyclopropylpiperazine-1-yl)piperidine-1-yl)-4-methoxyphenyl) acrylamide] | A (GI50 < 50 nM)
5 | C=CC(=O)Nc1cc(Nc2cc(N3OCC[C@@H]3c3ccc(F)cc3)ncn2)c(OC)cc1N1CCC(N2C[C@@H]3C[C@H]2CO3)CC1 [compound 812, N-(2-(4-((1S,4S)-2-oxa-5-azabicyclo [2.2.1]heptane-5-yl)piperidine-1-yl)-5-((6-((R)-3-(4-fluorophenyl)isoxazolidine-2-yl)pyrimidine-4-yl)amino)-4-methoxyphenyl) acrylamide] | A (GI50 < 50 nM)
6 | C=CC(=O)Nc1cc(Nc2cc(N3OCC[C@@H]3c3ccc(Cl)c(Cl)c3)ncn2)c(OC)cc1N1CCN(C(C)=O)CC1 [compound 675, N-(2-(4-acetylpiperazine-1-yl)-5-((6-((R)-3-(3,4-dichlorophenyl)isoxazolidine-2-yl)pyrimidine-4-yl)amino)-4-methoxyphenyl) acrylamide] | A (GI50 < 50 nM)
7 | C=CC(=O)Nc1cc(Nc2cc(N3OCC[C@H]3Cc3ccccc3)ncn2)c(OC)cc1N1CCN(CCN(C)C)CC1 [compound 976, N-(5-((6-((R)-3-benzylisoxazolidine-2-yl)pyrimidine-4-yl)amino)-2-(4-(2-(dimethylamino)ethyl)piperazine-1-yl)-4-methoxyphenyl) acrylamide] | C (500 nM ≤ GI50 < 5000 nM)
8 | C=CC(=O)Nc1cc(Nc2cc(N3OCC[C@@H]3c3ccc(F)c(Cl)c3)ncn2)c(OC)cc1N1CCC(N2CCN(C(C)=O)CC2)CC1 [compound 763, N-(2-(4-(4-acetylpiperazine-1-yl)piperidine-1-yl)-5-((6-((R)-3-(3-chloro-4-fluorophenyl)isoxazolidine-2-yl)pyrimidine-4-yl)amino)-4-methoxyphenyl) acrylamide] | A (GI50 < 50 nM)
9 | C=CC(=O)Nc1cc(Nc2cc(N3OCC[C@@H]3c3cccc(F)c3Cl)ncn2)c(OC)cc1N1CCN(CC)CC1 [compound 559, N-(5-((6-((R)-3-(2-chloro-3-fluorophenyl)isoxazolidine-2-yl)pyrimidine-4-yl)amino)-2-(4-ethylpiperazine-1-yl)-4-methoxyphenyl) acrylamide] | A (GI50 < 50 nM)
10 | C#Cc1cccc([C@H]2CCON2c2cc(Nc3cc(NC(=O)C=C)c(N4CCC(N(C)C)CC4)cc3OC)ncn2)c1 [compound 647, N-(2-(4-(dimethylamino)piperidine-1-yl)-5-((6-((R)-3-(3-ethynylphenyl)isoxazolidine-2-yl)pyrimidine-4-yl)amino)-4-methoxyphenyl) acrylamide] | A (GI50 < 50 nM)
11 | C=CC(=O)Nc1cc(Nc2cc(N3OCC[C@@H]3Cc3ccc(C(F)(F)F)cc3)ncn2)c(OC)cc1N1CCC(N2C[C@@H]3C[C@H]2CO3)CC1 [compound 1052, N-(2-(4-((1S,4S)-2-oxa-5-azabicyclo [2.2.1]heptane-5-yl)piperidine-1-yl)-4-methoxy-5-((6-((S)-3-(4-(trifluoromethyl)benzyl)isoxazolidine-2-yl)pyrimidine-4-yl)amino)phenyl) acrylamide] | A (GI50 < 50 nM)
12 | C=CC(=O)Nc1cc(Nc2cc(N3OCC[C@@H]3c3cc(F)ccc3F)ncn2)c(OC)cc1N1CCC(N2CC3CCC(C2)O3)CC1 [compound 820, N-(2-(4-(8-oxa-3-azabicyclo[3.2.1]octan-3-yl)piperidine-1-yl)-5-((6-((R)-3-(2,5-difluorophenyl)isoxazolidine-2-yl)pyrimidine-4-yl)amino)-4-methoxyphenyl) acrylamide] | A (GI50 < 50 nM)
13 | C=CC(=O)Nc1cc(Nc2cc(N3OCC[C@@H]3c3cc(F)cc(Cl)c3)ncn2)c(OC)cc1N1CCC(N2CCN(C3CC3)CC2)CC1 [Example 163, N-(5-((6-((R)-3-(3-chloro-5-fluorophenyl)isoxazolidine-2-yl)pyrimidine-4-yl)amino)-2-(4-(4-cyclopropylpiperazine-1-yl)piperidine-1-yl)-4-methoxyphenyl) acrylamide] | A (GI50 < 50 nM)
14 | C=CC(=O)Nc1cc(Nc2cc(N3OCC[C@@H]3Cc3cccc(Cl)c3Cl)ncn2)c(OC)cc1N1CCC(N2C[C@@H](C)O[C@@H](C)C2)CC1 [compound 1010, N-(5-((6-((S)-3-(2,3-dichlorobenzyl)isoxazolidine-2-yl)pyrimidine-4-yl)amino)-2-(4-((2S,6R)-2,6-dimethylmorpholino)piperidine-1-yl)-4-methoxyphenyl) acrylamide] | A (GI50 < 50 nM)
15 | C=CC(=O)Nc1cc(Nc2cc(N3OCC[C@@H]3c3cc(F)cc(F)c3)ncn2)c(OC)cc1N1CCC(N2CCC3(CC2)CC3)CC1 [compound 700, N-(2-(4-(6-azaspiro[2.5]octan-6-yl)piperidine-1-yl)-5-((6-((R)-3-(3,5-difluorophenyl)isoxazolidine-2-yl)pyrimidine-4-yl)amino)-4-methoxyphenyl) acrylamide] | A (GI50 < 50 nM)
16 | C=CC(=O)Nc1cc(Nc2cc(N3OCC[C@@H]3c3cccc(Cl)c3Cl)ncn2)c(OC)cc1N1C[C@@H]2C[C@H]1CN2CC [compound 524, N-(5-((6-((R)-3-(2,3-dichlorophenyl)isoxazolidine-2-yl)pyrimidine-4-yl)amino)-2-((1S,4S)-5-ethyl-2,5-diazabicyclo[2.2.1]heptane-2-yl)-4-methoxyphenyl) acrylamide] | A (GI50 < 50 nM)
17 | C=CC(=O)Nc1cc(Nc2cc(N3OCC[C@@H]3c3cccc(Cl)c3Cl)ncn2)c(OC)cc1N1CCC(N2CCN(C)CC2)CC1 [compound 565, N-(5-((6-((R)-3-(2,3-dichlorophenyl)isoxazolidine-2-yl)pyrimidine-4-yl)amino)-4-methoxy-2-(4-(4-methylpiperazine-1-yl)piperidine-1-yl)phenyl) acrylamide] | A (GI50 < 50 nM)
18 | C=CC(=O)Nc1cc(Nc2cc(N3OCC[C@@H]3c3cc(F)cc(F)c3)ncn2)c(OC)cc1N1CCC(N2C[C@@H](C)N(C3CC3)C[C@H]2C)CC1 [Example 114, N-(2-(4-((2R,5R)-4-cyclopropyl-2,5-dimethylpiperazine-1-yl)piperidine-1-yl)-5-((6-((R)-3-(3,5-difluorophenyl)isoxazolidine-2-yl)pyrimidine-4-yl)amino)-4-methoxyphenyl) acrylamide] | A (GI50 < 50 nM)
19 | C=CC(=O)Nc1cc(Nc2cc(N3OCC[C@@H]3c3ccc(Cl)c(Cl)c3F)ncn2)c(OC)cc1N1CC[C@@H](N(C)C)C1 [Example 291, N-(5-((6-((R)-3-(3,4-dichloro-2-fluorophenyl)isoxazolidine-2-yl)pyrimidine-4-yl)amino)-2-((R)-3-(dimethylamino)pyrolidine-1-yl)-4-methoxyphenyl) acrylamide] | B (50 nM ≤ GI50 < 500 nM)
20 | C=CC(=O)Nc1cc(Nc2cc(N3OCC[C@@H]3c3cccc(C#N)c3)ncn2)c(OC)cc1N1CCC(N2CCN(C3CC3)[C@@H](C)C2)CC1 [Example 125, N-(5-((6-((R)-3-(3-cyanophenyl)isoxazolidine-2-yl)pyrimidine-4-yl)amino)-2-(4-((S)-4-cyclopropyl-3-methylpiperazine-1-yl)piperidine-1-yl)-4-methoxyphenyl) acrylamide] | A (GI50 < 50 nM)
21 | C#Cc1cccc([C@H]2CCON2c2cc(Nc3cc(NC(=O)C=C)c(N4CCC(N5CCN(C6CCC6)CC5)CC4)cc3OC)ncn2)c1 [Example 191, N-(2-(4-(4-cyclobutylpiperazine-1-yl)piperidine-1-yl)-5-((6-((R)-3-(3-ethynylphenyl)isoxazolidine-2-yl)pyrimidine-4-yl)amino)-4-methoxyphenyl) acrylamide] | A (GI50 < 50 nM)
22 | C=CC(=O)Nc1cc(Nc2cc(N3OCC[C@@H]3c3ccc(F)cc3)ncn2)c(OC)cc1N1CCC(N2CC[C@H](N(C)C)C2)CC1 [compound 811, N-(2-(4-((S)-3-(dimethylamino)pyrolidine-1-yl)piperidine-1-yl)-5-((6-((R)-3-(4-fluorophenyl)isoxazolidine-2-yl)pyrimidine-4-yl)amino)-4-methoxyphenyl) acrylamide] | A (GI50 < 50 nM)
